The record followed here is the PolyMetriX glass transition set.

With `*Oc1ccc(C(=O)c2ccc(*)cc2)cc1` (repeat unit), the glass transition temperature came out at 154.00 °C.
On to `*Oc1ccc(C2(c3ccc(OC(*)=O)cc3)CC3CC2C2C4CCC(C4)C32)cc1` (repeat unit), for which the glass transition temperature is 267.50 °C.
As for `*Oc1ccc(C2(c3ccc(OC(*)=O)cc3)CC3CC2C2CCCC32)cc1` (repeat unit), the figure is 251.50 °C; as for `*Oc1ccc(C2(c3ccc(OC(=O)c4ccc(C(*)=O)cc4)cc3)CC3CC2C2CCCC32)cc1` (repeat unit), 322.00 °C.
The same measure for `*Oc1ccc(C2(c3ccc(OC(=O)c4ccc(C(*)=O)cc4)cc3)CCc3ccccc32)cc1` (repeat unit): 312.00 °C; for `*Oc1ccc(C2(c3ccc(OC(=O)c4ccc(C(*)=O)cc4)cc3)c3ccccc3-c3ccccc32)cc1` (repeat unit): 285.00 °C.
Compound `*Oc1ccc(C2(c3ccc(OC(=O)c4ccc(C(*)=O)cc4)cc3)c3ccccc3Cc3ccccc32)cc1` (repeat unit) showed a glass transition temperature of 342.00 °C.
Regarding `*Oc1ccc(C2(c3ccc(OC(=O)c4cccc(C(*)=O)c4)cc3)c3ccccc3-c3ccccc32)cc1` (repeat unit), the glass transition temperature was found to be 269.50 °C.
Turning to `*Oc1ccc(C2(c3ccc(OC4(F)C(*)(F)C(F)(F)C4(F)F)cc3)c3ccccc3-c3ccccc32)cc1` (repeat unit), the glass transition temperature was 228.00 °C.
On to `*Oc1ccc(C2(c3ccc(Oc4ccc5c(=O)n6c7cc(Oc8ccc9c(c8)nc8c%10ccc(*)c%11cccc(c(=O)n98)c%11%10)ccc7nc6c6cccc4c56)cc3)c3ccccc3-c3ccccc32)cc1` (repeat unit), for which the glass transition temperature stood at 396.00 °C.
For the compound `*Oc1ccc(C2(c3ccc(Oc4nc(*)nc(OC)n4)cc3)CCCCC2)cc1` (repeat unit), the glass transition temperature was determined as 200.00 °C.
`*Oc1ccc(Cc2ccc(OC(*)=O)cc2)cc1` (repeat unit): the glass transition temperature was found to be 133.50 °C.
`*Oc1ccc(Cc2ccc(OC(=O)c3cccc(C(*)=O)c3)cc2)cc1` (repeat unit) displayed a glass transition temperature of 150.00 °C.
As for `*Oc1ccc(S(=O)(=O)c2ccc(Oc3ccc(C(=O)c4ccc(*)cc4)cc3)cc2)cc1` (repeat unit), the figure is 205.00 °C.
The same measure for `*c1ccc(OC(=O)c2ccc(C(=O)Oc3ccc(C4(*)OC(=O)c5ccccc54)cc3)cc2)cc1` (repeat unit): 279.00 °C; for `*c1ccc(OC(=O)c2cccc(C(=O)Oc3ccc(C4(*)OC(=O)c5ccccc54)cc3)c2)cc1` (repeat unit): 282.50 °C; for `*c1ccc(Oc2ccc(C3(c4ccc(Oc5ccc(N6C(=O)c7ccc(Oc8ccc(C9(c%10ccc(Oc%11ccc%12c(c%11)C(=O)N(*)C%12=O)cc%10)CCC(c%10ccccc%10)CC9)cc8)cc7C6=O)cc5)cc4)CC4CCC3C4)cc2)cc1` (repeat unit): 245.00 °C.
Compound `*c1ccc(Oc2ccc(C3(c4ccc(Oc5ccc(N6C(=O)c7ccc(Oc8ccc(C9(c%10ccc(Oc%11ccc%12c(c%11)C(=O)N(*)C%12=O)cc%10)CCCCCCCCCCC9)cc8)cc7C6=O)cc5)cc4)CC4CCC3C4)cc2)cc1` (repeat unit) yielded a glass transition temperature of 259.00 °C.
Take `*c1ccc(Oc2ccc(N3C(=O)c4ccc(Oc5ccc(C6(c7ccc(Oc8ccc9c(c8)C(=O)N(*)C9=O)cc7)CCC(c7ccccc7)CC6)cc5)cc4C3=O)cc2)cc1` (repeat unit): the glass transition temperature came out at 236.00 °C.
`*c1ccc(Oc2ccc(N3C(=O)c4ccc(Oc5ccc(C6(c7ccc(Oc8ccc9c(c8)C(=O)N(*)C9=O)cc7)CCCCCCCCCCC6)cc5)cc4C3=O)cc2)cc1` (repeat unit) had a glass transition temperature of 230.00 °C.
The same measure for `*c1nnc(-c2ccc(Oc3ccc(/C=C/c4ccc(Oc5ccc(*)c6ccccc56)cc4)c4ccccc34)c3ccccc23)o1` (repeat unit): 241.00 °C.
